O=c1[nH]c2ccccc2n1CCCN1CCC(n2c(=O)[nH]c3cc(Cl)ccc32)CC1
solubility (mole fraction)
Settings | 278.15 K | 283.15 K | 288.15 K | 293.15 K | 298.15 K | 303.15 K | 308.15 K | 313.15 K | 318.15 K
in DMAc | 0.000805 | 0.000971 | 0.00116 | 0.00136 | 0.00158 | 0.00182 | 0.00208 | 0.00234 | 0.00262
in DMF | 7.44e-05 | 9.91e-05 | 0.000131 | 0.00017 | 0.000223 | 0.000282 | 0.000369 | 0.000471 | 0.000575
in DMSO | 0.000283 | 0.00034 | 0.000408 | 0.000489 | 0.000584 | 0.000698 | 0.000832 | 0.00099 | 0.00118
in acetonitrile | 1.2e-07 | 1.85e-07 | 2.54e-07 | 3.43e-07 | 4.6e-07 | 6.68e-07 | 8.73e-07 | 1.07e-06 | 1.46e-06
in ethanol | 8.55e-06 | 1.09e-05 | 1.47e-05 | 1.86e-05 | 2.28e-05 | 2.93e-05 | 3.6e-05 | 4.53e-05 | 5.35e-05
in ethylene glycol | 1.11e-05 | 1.43e-05 | 1.84e-05 | 2.21e-05 | 2.93e-05 | 3.47e-05 | 4.43e-05 | 5.56e-05 | 6.6e-05
in isobutanol | 1.05e-05 | 1.35e-05 | 1.8e-05 | 2.23e-05 | 2.83e-05 | 3.67e-05 | 4.58e-05 | 5.68e-05 | 7.17e-05
in isopropanol | 7.95e-06 | 9.92e-06 | 1.45e-05 | 1.84e-05 | 2.27e-05 | 2.74e-05 | 3.45e-05 | 4.33e-05 | 5.42e-05
in methanol | 8.19e-06 | 9.89e-06 | 1.21e-05 | 1.6e-05 | 2.07e-05 | 2.56e-05 | 3.17e-05 | 4.03e-05 | 4.9e-05
in n-butanol | 1.23e-05 | 1.64e-05 | 2.19e-05 | 2.85e-05 | 3.66e-05 | 4.45e-05 | 5.47e-05 | 7.02e-05 | 8.57e-05
in n-propanol | 1.18e-05 | 1.45e-05 | 1.9e-05 | 2.55e-05 | 3.25e-05 | 4.17e-05 | 5.05e-05 | 6.43e-05 | 7.85e-05
in water | 8.77e-08 | 1.05e-07 | 1.38e-07 | 1.75e-07 | 2.22e-07 | 2.76e-07 | 3.35e-07 | 4.16e-07 | 5.11e-07

From BigSolDB 2.1
